Laboratory results published in article PMC3155411 (2011).

How the values were obtained:
[1] = biological target: T1, yeast alcohol dehydrogenase (Saccharomyces cerevisiae, UniProt P00330); assay: fluorescence titration; assay type: binding
T1 sequence (P00330 2-348): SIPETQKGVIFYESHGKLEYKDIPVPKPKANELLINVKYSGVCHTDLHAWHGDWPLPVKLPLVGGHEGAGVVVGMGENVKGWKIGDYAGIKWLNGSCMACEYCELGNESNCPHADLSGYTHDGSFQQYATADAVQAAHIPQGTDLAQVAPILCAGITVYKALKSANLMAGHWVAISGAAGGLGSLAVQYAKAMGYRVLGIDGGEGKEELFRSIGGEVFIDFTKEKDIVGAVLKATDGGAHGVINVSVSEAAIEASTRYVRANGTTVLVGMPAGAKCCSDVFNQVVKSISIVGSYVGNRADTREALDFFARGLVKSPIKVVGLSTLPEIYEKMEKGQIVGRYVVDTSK

[2] = biological target: carbonic anhydrase (Zn-CA) (Bos taurus, UniProt P00921); assay: fluorescence titration; assay type: binding
Chain of carbonic anhydrase (Zn-CA) (P00921 2-260): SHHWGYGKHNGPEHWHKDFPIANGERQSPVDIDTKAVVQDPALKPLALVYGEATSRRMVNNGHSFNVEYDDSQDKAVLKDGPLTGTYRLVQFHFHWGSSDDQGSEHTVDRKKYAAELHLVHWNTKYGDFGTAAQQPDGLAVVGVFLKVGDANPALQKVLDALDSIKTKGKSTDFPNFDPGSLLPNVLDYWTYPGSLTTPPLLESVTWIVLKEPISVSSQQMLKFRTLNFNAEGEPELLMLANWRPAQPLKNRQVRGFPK

Kd [1]: 48.6 µM | Kd [2]: 0.155 µM
Compound: COc1cc(NS(=O)(=O)c2ccc(C)cc2)c2ncccc2c1 [TSQ, 6-methoxy-8-p-toluenesulfonamido-quinoline]
